Results published in patent US10653667B2, “Drug for preventing, treating or preventing metastasis of giant cell tumor that occurs in bone or soft parts, chondrosarcoma, or osteosarcoma, local injection for arterial embolization, and artificial bone” (NIPPON CHEMIPHAR CO., LTD, priority 2013, dated 2020).

Key:
[1] = tested on: GCTB cultured cells of the case 1; assay: Tunel assay and caspase 3 staining of GCTB cultured cells (apoptosis); assay type: cell-based, human; details: zaltoprofen 100 and 200 μM; 8 hours and 24 hours
Experimental: (§1) Further, the aforementioned GCTB cultured cells of the case 1 mentioned above were cultured on chamber cover slide glass, and zaltoprofen was added at different concentrations (100, and 200 μM) 24 hours afterward. Then, 8 hours and 24 hours afterward, the cells were fixed with 4% paraformaldehyde, staining with caspase 3 and Tunel assay were performed, and presence or absence of apoptosis was analyzed. In the Tunel assay, fragmented DNAs produced in the process of apoptosis were detected by the TdT-mediated dUTP nick end labeling method (TUNEL). Observation was performed with a fluorescence microscope (BZ-9000) of Keyence, and positive images for each concentration were quantitatively observed (FIGS. 2 to 5).

[2] = tested on: cultured cells of human giant cell tumor of tendon sheath (GCTT); assay: Tunel assay and caspase 3 staining of GCTT cultured cells; assay type: cell-based; details: zaltoprofen 400 μM or troglitazone 200 μM, compared with control
Experimental: as §1
Further, in the same manner as that of Example 1, the cultured cells of human giant cell tumor of tendon sheath (GCTT) and the cultured cells of human pigmented villonodular synovitis (PVNS) were subjected to staining with caspase 3 and Tunel assay, and presence or absence of apoptosis was analyzed (FIGS. 18 to 25).

[3] = tested on: cells of pigmented villonodular synovitis (PVNS); assay: Fat cell differentiation of PVNS cells (HCS LipidTOX Green); assay type: cell-based, human; details: zaltoprofen 400 μM, compared with control
Experimental: It has been reported that PPARγ is a transcription factor indispensable for fat cell differentiation. Therefore, the GCTB cultured cells of the aforementioned case 1 were cultured on chamber cover slide glass, and when they reached confluent, zaltoprofen was added to the cells at various concentrations (10, 50, and 100 μM). From 24 hours thereafter, the cells were cultured in a fat cell differentiation-inducing medium (STREMPRO Adipogenesis Differentiation Kit, Invitrogen) for 7 to 14 days, and differentiation into fat cells was analyzed with HCS Lipid TOX Green Neutral Lipid Stain (Invitrogen) (FIGS. 8 and 9).
It has been reported that PPARγ is a transcription factor indispensable for fat cell differentiation. Therefore, in the same manner as that of Example 3, zaltoprofen was added at a concentration of 400 μM to the cells of giant cell tumor of tendon sheath (GCTT) or cells of pigmented villonodular synovitis (PVNS), and differentiation into fat cells was analyzed (FIGS. 30 and 31). As a result, it was successfully confirmed that the positive images obtained with HCS LipidTOX Green increased in the zaltoprofen-added cells compared with the control.

SW1353 cells [4] = assay: Proliferation of SW1353 cells cultured beforehand with PPARγ siRNA or control siRNA; assay type: cell-based, human
SW1353 cells [5] = assay: Cell migration of human chondrosarcoma cell line SW1353; assay type: cell-based; details: 72 hours
Experimental: The analysis of cell migration was performed by using a 6-well plate of TPP according to the method described in Takeuchi A, et al., Cancer Science, 104:740-749, 2013 (Low molecular weight heparin suppresses receptor for advanced glycation end products-mediated expression of malignant phenotype in human fibrosarcoma cells). Cells of the human chondrosarcoma cell line, SW1353, were cultured in the same manner as that of Example 1 until they became sub-confluent, and the cells were delaminated in a width of 1 mm using a micropipette tip (200 μl). […] Then, area of the cells migrated to the region where the cells were delaminated was measured by using Image J software (http://rsb.info.nih.gov/ij/index.html) (FIGS. 73 and 74).

[6] = tested on: PPARγ expression in H-EMC-SS cells; details: inventors' earlier reports; cited from earlier work
[7] = tested on: synovial cells derived from rheumatism patients; details: cited from earlier work

With `CC(C(=O)O)c1ccc2c(c1)CC(=O)c1ccccc1S2` (stereo not shown) [zaltoprofen] the Tunel-positive ratio [1] was “concentration and administration time-dependent increases”, the “caspase 3-positive ratio” value [1] was “concentration and administration time-dependent increases” and the Tunel-positive ratio [2] was “increased”. For the same compound, the “caspase 3-positive ratio” value [2] was “increased”, the “positive images obtained with HCS LipidTOX Green (differentiation into fat cells)” value [3] was “increased” and the “suppression of proliferation of SW1353 cells” value (SW1353 cells [4]; 400 μM zaltoprofen, 24 hours) was “about 38%”. The “cell proliferation-suppressing action when expression of PPARγ is suppressed by siRNA” value (SW1353 cells [4]; SW1353, PPARγ-siRNA 100 nM 48 hours, 400 μM zaltoprofen or 100 μM rosiglitazone) was “substantially eliminated”, the “suppression of cell migration of SW1353 cells” value (SW1353 cells [5]; 400 μM zaltoprofen) was “about 40%” and the “suppression of cell migration of SW1353 cells” value (SW1353 cells [5]; all set concentrations, concentration-dependent) was “suppressed the cell migration”. The “expression of PPARγ in H-EMC-SS cells” value [6] was “promoted expression of PPARγ”, the “activation of PPARγ” value [7] was “activated PPARγ” and the apoptosis [7] was “caused apoptosis”. For the same compound, the “suppression of proliferation of the cells” value [7] was “suppress proliferation”.
